Data as given in patent US9622472B2, “Molecules that induce disease resistance in plants” (The Regents of the University of California, priority 2013, dated 2017).

Key:
[1] = system: virulent Peronospora isolate Noco2; assay: Noco2 spore inhibition assay in soil-grown Col-0 seedlings; format: in vivo, Hyaloperonospora arabidopsidis (Peronospora)
Description: FIG. 1. Phenyl-imino-methyl-phenol derivatives (PMPs) constitute a large class of new synthetic elicitors. A: Structures of 20 PMP derivatives that were identified by high throughput screening as able to promote expression with the CaBP22 reporter assay. B. CMP199 was further analyzed in the Noco2 spore inhibition assay. Three-week-old soil-grown Col-0 seedlings were spray-infected 24 h after treating with varying concentrations of each synthetic elicitor and then assayed at 7 dpi for spore growth. 100% inhibition=0 spores. The assay was repeated three times with similar results, and the average of those three replicates is shown. DCA=3-5-dicholoroanthranlilic acid; HTC=2-(5-bromo-2-hydroxy-phenyl)-thiazolidine-4-carboxylic acid.
CMP199 (FIG. 1A) was selected for further study to determine whether CMP199 could induce pathogen resistance in soil-grown plants. […] To determine if CMP199 differs from other synthetic elicitors, Col-0 seedlings were treated with DCA or HTC at the indicated concentrations and compared.

[2] = system: Hyaloperonospora arabidopsidis (Peronospora); details: Arabidopsis; Knoth et al. (2009); cited from earlier work
[3] = system: pathogen-responsive CaBP22^−333::GUS reporter gene; details: transgenic Arabidopsis; reported in Knoth et al. (2009); cited from earlier work
Pseudomonas syringae = details: Arabidopsis; Knoth et al. (2009); cited from earlier work

| SMILES | induction of disease resistance ([1]; A. thaliana) | inhibition of Noco2 spores, concentration compared with other synthetic elicitors ([1]; Col-0 seedlings, spray-infected 24 h after treating, assayed at 7 dpi, FIG. 1B) | concentration giving significantly reduced numbers of Noco2 spores ([1]; Col-0 sprayed prior to infection, spores 7 days post infection) [µM] | disease resistance triggered [2] | induction of pCaBP22^−333::GUS reporter gene [3] | disease resistance triggered (Pseudomonas syringae) |
| --- | --- | --- | --- | --- | --- | --- |
| COc1cccc(N=Cc2cc(Cl)cc(Cl)c2O)c1 [CMP199, 2,4-dichloro-6-[((3-methoxy-phenyl)imino)methyl]-phenol] | able to induce disease resistance in A. thaliana at very low concentration | much lower concentration than DCA or HTC | ≤ 1 | – | – | – |
| Nc1c(Cl)cc(Cl)cc1C(=O)O [DCA, 3-5-dicholoroanthranlilic acid] | – | – | – | fast, strong and transient disease resistance | induce | fast, strong and transient disease resistance |
